Measured values as given in PubChem BioAssay AID1919015 (Molecular Pharmacology Branch, DTP, NCI, 2023).

System: OVCAR-5 complex spheroids with HUVEC/MSC, viability, % test/control
Experiment: Anticancer human tumor OVCAR-5 cell line growth inhibition [AhR];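 note: spheroids exposed to compounds for 7 days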;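 for viability, T/C: 100% = DMSO vehicle control wells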
Conditions: for IC50: curve of first compound; for viability, T/C: stronger effect = lower value
Summary of the method: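 Agents were dosed in half-log steps down from roughly clinical Cmax, or from 10 microM where Cmax was unknown, alone and with AhR antagonists. Read-out: percent test/control growth of tumor spheroids containing HUVEC and MSC stromal cells.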

[1] = second compound 0.1 µM, first compound 0.00949 µM
[2] = second compound 0.1 µM, first compound 0.03 µM
[3] = second compound 0.1 µM, first compound 0.0949 µM
[4] = second compound 0.1 µM, first compound 0.3 µM
[5] = second compound 0.316 µM, first compound 0.00949 µM
[6] = second compound 0.316 µM, first compound 0.03 µM
[7] = second compound 0.316 µM, first compound 0.0949 µM
[8] = second compound 0.316 µM, first compound 0.3 µM
[9] = second compound 1 µM, first compound 0.00949 µM
[10] = second compound 1 µM, first compound 0.03 µM
[11] = second compound 1 µM, first compound 0.0949 µM
[12] = second compound 1 µM, first compound 0.3 µM
[13] = second compound 3.16 µM, first compound 0.00949 µM
[14] = second compound 3.16 µM, first compound 0.03 µM
[15] = second compound 3.16 µM, first compound 0.0949 µM
[16] = second compound 3.16 µM, first compound 0.3 µM
[17] = second compound 10 µM, first compound 0.00949 µM
[18] = second compound 10 µM, first compound 0.03 µM
[19] = second compound 10 µM, first compound 0.0949 µM
[20] = second compound 10 µM, first compound 0.3 µM
[21] = second compound 0.1 µM, first compound 0.0316 µM
[22] = second compound 0.1 µM, first compound 0.1 µM
[23] = second compound 0.1 µM, first compound 0.316 µM
[24] = second compound 0.1 µM, first compound 1 µM
[25] = second compound 0.1 µM, first compound 3.16 µM
[26] = second compound 0.1 µM, first compound 10 µM
[27] = second compound 0.316 µM, first compound 0.0316 µM
[28] = second compound 0.316 µM, first compound 0.1 µM
[29] = second compound 0.316 µM, first compound 0.316 µM
[30] = second compound 0.316 µM, first compound 1 µM
[31] = second compound 0.316 µM, first compound 3.16 µM
[32] = second compound 0.316 µM, first compound 10 µM
[33] = second compound 1 µM, first compound 0.0316 µM
[34] = second compound 1 µM, first compound 0.1 µM
[35] = second compound 1 µM, first compound 0.316 µM
[36] = second compound 1 µM, first compound 1 µM
[37] = second compound 1 µM, first compound 3.16 µM
[38] = second compound 1 µM, first compound 10 µM
[39] = second compound 3.16 µM, first compound 0.0316 µM
[40] = second compound 3.16 µM, first compound 0.1 µM
[41] = second compound 3.16 µM, first compound 0.316 µM
[42] = second compound 3.16 µM, first compound 1 µM
[43] = second compound 3.16 µM, first compound 3.16 µM
[44] = second compound 3.16 µM, first compound 10 µM
[45] = second compound 10 µM, first compound 0.0316 µM
[46] = second compound 10 µM, first compound 0.1 µM
[47] = second compound 10 µM, first compound 0.316 µM
[48] = second compound 10 µM, first compound 1 µM
[49] = second compound 10 µM, first compound 3.16 µM
[50] = second compound 10 µM, first compound 10 µM

Nc1ncn(C2CC(O)C(CO)S2)c(=O)n1 (stereo not given) + Cc1cncc(-c2nc(NCCc3c[nH]c4ccccc34)c3ncn(C(C)C)c3n2)c1
IC50 (second compound 0.1 µM): > 0.3 µM
IC50 (second compound 0.316 µM): > 0.3 µM
IC50 (second compound 1 µM): > 0.3 µM
IC50 (second compound 3.16 µM): > 0.3 µM
IC50 (second compound 10 µM): < 0.000949 µM
viability, T/C (second compound 0.1 µM, first compound 0.000949 µM): 99.8%
viability, T/C (second compound 0.1 µM, first compound 0.003 µM): 101%
viability, T/C [1]: 102%
viability, T/C [2]: 98.4%
viability, T/C [3]: 85.9%
viability, T/C [4]: 80.6%
viability, T/C (second compound 0.316 µM, first compound 0.000949 µM): 99.1%
viability, T/C (second compound 0.316 µM, first compound 0.003 µM): 101%
viability, T/C [5]: 96.8%
viability, T/C [6]: 93.1%
viability, T/C [7]: 85.5%
viability, T/C [8]: 78.2%
viability, T/C (second compound 1 µM, first compound 0.000949 µM): 87.8%
viability, T/C (second compound 1 µM, first compound 0.003 µM): 88.7%
viability, T/C [9]: 89.7%
viability, T/C [10]: 79.7%
viability, T/C [11]: 75.4%
viability, T/C [12]: 70.9%
viability, T/C (second compound 3.16 µM, first compound 0.000949 µM): 75.4%
viability, T/C (second compound 3.16 µM, first compound 0.003 µM): 76.3%
viability, T/C [13]: 75.5%
viability, T/C [14]: 79.6%
viability, T/C [15]: 63.2%
viability, T/C [16]: 62.7%
viability, T/C (second compound 10 µM, first compound 0.000949 µM): 18.3%
viability, T/C (second compound 10 µM, first compound 0.003 µM): 17.9%
viability, T/C [17]: 18%
viability, T/C [18]: 15.2%
viability, T/C [19]: 14.3%
viability, T/C [20]: 15.1%

NS(=O)(=O)OCC1CC(n2ccc3c(NC4CCc5ccccc54)ncnc32)CC1O (stereo not given) + Cc1ccccc1N=Nc1ccc(NC(=O)c2ccnn2C)c(C)c1
IC50 (second compound 0.1 µM): 0.201 µM
IC50 (second compound 0.316 µM): 0.178 µM
IC50 (second compound 1 µM): 0.141 µM
IC50 (second compound 3.16 µM): 0.0963 µM
IC50 (second compound 10 µM): 0.0946 µM
viability, T/C [21]: 96.4%
viability, T/C [22]: 66.9%
viability, T/C [23]: 40.8%
viability, T/C [24]: 16.2%
viability, T/C [25]: 9.98%
viability, T/C [26]: 10.5%
viability, T/C [27]: 88.3%
viability, T/C [28]: 63.3%
viability, T/C [29]: 37.8%
viability, T/C [30]: 14.3%
viability, T/C [31]: 11.1%
viability, T/C [32]: 9.31%
viability, T/C [33]: 82.5%
viability, T/C [34]: 55.6%
viability, T/C [35]: 36.2%
viability, T/C [36]: 14.2%
viability, T/C [37]: 9.92%
viability, T/C [38]: 9.81%
viability, T/C [39]: 66.6%
viability, T/C [40]: 47.7%
viability, T/C [41]: 32.2%
viability, T/C [42]: 12.7%
viability, T/C [43]: 9.52%
viability, T/C [44]: 8.47%
viability, T/C [45]: 69.5%
viability, T/C [46]: 47.7%
viability, T/C [47]: 29.2%
viability, T/C [48]: 11%
viability, T/C [49]: 7.66%
viability, T/C [50]: 7.56%

CC1(C)CCC(CN2CCN(c3ccc(C(=O)NS(=O)(=O)c4ccc(NCC5CCOCC5)c([N+](=O)[O-])c4)c(Oc4cnc5[nH]ccc5c4)c3)CC2)=C(c2ccc(Cl)cc2)C1 + Cc1ccccc1N=Nc1ccc(NC(=O)c2ccnn2C)c(C)c1
IC50 (second compound 0.1 µM): > 10 µM
IC50 (second compound 0.316 µM): > 10 µM
IC50 (second compound 1 µM): > 10 µM
IC50 (second compound 3.16 µM): > 10 µM
IC50 (second compound 10 µM): > 10 µM
viability, T/C [21]: 102%
viability, T/C [22]: 101%
viability, T/C [23]: 102%
viability, T/C [24]: 95.7%
viability, T/C [25]: 99.2%
viability, T/C [26]: 52.7%
viability, T/C [27]: 102%
viability, T/C [28]: 106%
viability, T/C [29]: 106%
viability, T/C [30]: 103%
viability, T/C [31]: 105%
viability, T/C [32]: 53%
viability, T/C [33]: 102%
viability, T/C [34]: 113%
viability, T/C [35]: 107%
viability, T/C [36]: 112%
viability, T/C [37]: 104%
viability, T/C [38]: 56.9%
viability, T/C [39]: 103%
viability, T/C [40]: 115%
viability, T/C [41]: 108%
viability, T/C [42]: 112%
viability, T/C [43]: 109%
viability, T/C [44]: 54.2%
viability, T/C [45]: 109%
viability, T/C [46]: 107%
viability, T/C [47]: 105%
viability, T/C [48]: 108%
viability, T/C [49]: 105%
viability, T/C [50]: 57.3%

CCN(c1cc(-c2ccc(CN3CCOCC3)cc2)cc(C(=O)NCc2c(C)cc(C)[nH]c2=O)c1C)C1CCOCC1 + Cc1ccccc1N=Nc1ccc(NC(=O)c2ccnn2C)c(C)c1
IC50 (second compound 0.1 µM): > 3 µM
IC50 (second compound 0.316 µM): > 3 µM
IC50 (second compound 1 µM): > 3 µM
IC50 (second compound 3.16 µM): > 3 µM
IC50 (second compound 10 µM): > 3 µM
viability, T/C [1]: 105%
viability, T/C [2]: 106%
viability, T/C [3]: 102%
viability, T/C [4]: 101%
viability, T/C (second compound 0.1 µM, first compound 0.949 µM): 95%
viability, T/C (second compound 0.1 µM, first compound 3 µM): 101%
viability, T/C [5]: 107%
viability, T/C [6]: 109%
viability, T/C [7]: 107%
viability, T/C [8]: 102%
viability, T/C (second compound 0.316 µM, first compound 0.949 µM): 102%
viability, T/C (second compound 0.316 µM, first compound 3 µM): 103%
viability, T/C [9]: 112%
viability, T/C [10]: 110%
viability, T/C [11]: 111%
viability, T/C [12]: 115%
viability, T/C (second compound 1 µM, first compound 0.949 µM): 107%
viability, T/C (second compound 1 µM, first compound 3 µM): 110%
viability, T/C [13]: 115%
viability, T/C [14]: 114%
viability, T/C [15]: 115%
viability, T/C [16]: 109%
viability, T/C (second compound 3.16 µM, first compound 0.949 µM): 109%
viability, T/C (second compound 3.16 µM, first compound 3 µM): 112%
viability, T/C [17]: 106%
viability, T/C [18]: 103%
viability, T/C [19]: 104%
viability, T/C [20]: 105%
viability, T/C (second compound 10 µM, first compound 0.949 µM): 99.9%
viability, T/C (second compound 10 µM, first compound 3 µM): 98.2%
